Measured values from patent publication US9926282B2, “Phthalazinones and isoquinolinones as rock inhibitors” (BRISTOL-MYERS SQUIBB COMPANY, priority 2013, dated 2018).

What was measured:
[1] = biological target: ROCK2 (Homo sapiens (Human), UniProt O75116); assay: ROCK assay (LABCHIP peptide phosphorylation), ROCK2; format: biochemical; settings: 5 μM ATP, 1.5 μM peptide substrate
[2] = biological target: ROCK1 (Homo sapiens (Human), UniProt Q13464); assay: ROCK assay (LABCHIP peptide phosphorylation), ROCK1; format: biochemical; settings: 5 μM ATP, 1.5 μM peptide substrate; read-out: ROCK1 IC50
ROCK1, sequence (Q13464 whole entry, species assumed): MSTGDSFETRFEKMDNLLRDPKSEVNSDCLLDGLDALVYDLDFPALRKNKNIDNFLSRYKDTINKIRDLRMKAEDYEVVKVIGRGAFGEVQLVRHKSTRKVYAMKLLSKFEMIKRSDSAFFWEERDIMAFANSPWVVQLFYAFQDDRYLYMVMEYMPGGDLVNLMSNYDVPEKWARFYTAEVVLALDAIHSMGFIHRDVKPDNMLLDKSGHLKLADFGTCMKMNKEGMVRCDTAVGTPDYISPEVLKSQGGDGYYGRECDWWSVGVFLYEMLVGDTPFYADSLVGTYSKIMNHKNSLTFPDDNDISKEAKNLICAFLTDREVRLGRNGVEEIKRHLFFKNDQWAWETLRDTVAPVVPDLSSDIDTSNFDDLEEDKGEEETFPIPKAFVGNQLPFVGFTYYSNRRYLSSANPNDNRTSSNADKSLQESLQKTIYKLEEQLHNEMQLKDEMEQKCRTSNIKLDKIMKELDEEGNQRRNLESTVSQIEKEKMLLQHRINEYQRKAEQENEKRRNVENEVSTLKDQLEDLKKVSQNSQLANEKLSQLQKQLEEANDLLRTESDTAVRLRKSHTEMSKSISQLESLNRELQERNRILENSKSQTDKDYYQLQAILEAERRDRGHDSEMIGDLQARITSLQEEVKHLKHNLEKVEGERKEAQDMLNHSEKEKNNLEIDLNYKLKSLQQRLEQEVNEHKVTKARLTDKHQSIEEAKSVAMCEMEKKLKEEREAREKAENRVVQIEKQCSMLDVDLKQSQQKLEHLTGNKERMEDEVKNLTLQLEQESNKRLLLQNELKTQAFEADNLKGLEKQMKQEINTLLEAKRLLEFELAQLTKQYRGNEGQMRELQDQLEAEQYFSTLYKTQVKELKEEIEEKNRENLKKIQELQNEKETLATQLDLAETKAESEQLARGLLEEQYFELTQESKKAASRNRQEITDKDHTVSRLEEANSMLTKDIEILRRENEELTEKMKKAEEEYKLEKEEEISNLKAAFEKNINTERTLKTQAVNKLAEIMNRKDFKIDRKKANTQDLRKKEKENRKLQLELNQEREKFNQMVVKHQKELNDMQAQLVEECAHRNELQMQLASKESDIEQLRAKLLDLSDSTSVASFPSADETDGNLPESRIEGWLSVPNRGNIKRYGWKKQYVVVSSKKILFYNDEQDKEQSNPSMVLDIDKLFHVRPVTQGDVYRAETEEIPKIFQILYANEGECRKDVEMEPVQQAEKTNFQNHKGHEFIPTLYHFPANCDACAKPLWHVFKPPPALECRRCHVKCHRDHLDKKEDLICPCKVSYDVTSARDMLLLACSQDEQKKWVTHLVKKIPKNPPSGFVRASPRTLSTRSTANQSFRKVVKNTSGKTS

ROCK2, sequence (O75116 whole entry, species assumed): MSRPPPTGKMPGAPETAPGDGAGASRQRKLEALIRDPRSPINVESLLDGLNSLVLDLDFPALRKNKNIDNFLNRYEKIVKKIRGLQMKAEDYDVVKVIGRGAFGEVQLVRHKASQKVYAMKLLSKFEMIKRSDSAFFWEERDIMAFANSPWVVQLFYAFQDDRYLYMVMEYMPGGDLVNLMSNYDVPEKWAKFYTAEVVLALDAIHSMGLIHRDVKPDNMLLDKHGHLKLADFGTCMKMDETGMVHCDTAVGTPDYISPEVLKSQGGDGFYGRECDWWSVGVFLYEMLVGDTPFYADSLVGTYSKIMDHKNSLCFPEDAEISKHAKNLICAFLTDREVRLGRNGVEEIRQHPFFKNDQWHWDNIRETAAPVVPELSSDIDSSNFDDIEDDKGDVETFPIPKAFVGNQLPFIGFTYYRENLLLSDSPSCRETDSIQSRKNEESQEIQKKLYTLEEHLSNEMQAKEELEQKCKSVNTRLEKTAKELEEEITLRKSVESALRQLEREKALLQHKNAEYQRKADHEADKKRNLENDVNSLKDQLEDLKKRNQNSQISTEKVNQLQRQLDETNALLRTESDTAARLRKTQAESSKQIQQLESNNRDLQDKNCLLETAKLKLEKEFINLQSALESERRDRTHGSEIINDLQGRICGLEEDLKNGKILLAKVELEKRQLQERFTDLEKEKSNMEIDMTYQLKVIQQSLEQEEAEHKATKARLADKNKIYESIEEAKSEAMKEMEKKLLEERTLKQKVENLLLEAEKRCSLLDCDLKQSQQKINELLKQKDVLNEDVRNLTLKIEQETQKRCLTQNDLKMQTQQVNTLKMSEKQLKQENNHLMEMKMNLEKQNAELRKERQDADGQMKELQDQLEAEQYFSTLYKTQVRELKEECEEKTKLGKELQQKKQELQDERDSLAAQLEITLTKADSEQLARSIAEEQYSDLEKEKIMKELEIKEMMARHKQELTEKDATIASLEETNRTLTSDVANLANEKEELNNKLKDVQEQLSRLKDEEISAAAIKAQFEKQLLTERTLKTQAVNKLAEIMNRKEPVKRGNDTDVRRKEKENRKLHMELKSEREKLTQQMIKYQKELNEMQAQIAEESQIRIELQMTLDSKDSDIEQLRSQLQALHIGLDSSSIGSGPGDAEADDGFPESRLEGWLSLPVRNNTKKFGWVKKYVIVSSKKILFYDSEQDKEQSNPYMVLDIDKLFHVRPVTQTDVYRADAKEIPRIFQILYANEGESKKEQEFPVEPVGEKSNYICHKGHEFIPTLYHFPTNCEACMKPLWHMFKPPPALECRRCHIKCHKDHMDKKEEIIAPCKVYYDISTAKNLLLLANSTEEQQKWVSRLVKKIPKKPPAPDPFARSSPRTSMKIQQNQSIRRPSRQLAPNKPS

| SMILES | IC50 [1] | IC50 [2] |
| --- | --- | --- |
| O=C(Nc1ccc(-c2n[nH]c(=O)c3ccccc23)cc1)c1cnn(-c2ccc(Cl)cc2)c1 [Example 388, 1-(4-Chlorophenyl)-N-(4-(4-oxo-3,4-dihydrophthalazin-1-yl)phenyl)-1H-pyrazole-4-carboxamide] | 0.1 to 100 nM | 101 to 1000 nM |
| O=C(Nc1ccc(-c2n[nH]c(=O)c3ccccc23)cc1)c1noc2ccccc12 [Example 118, N-[4-(4-oxo-3,4-dihydrophthalazin-1-yl)phenyl]-1,2-benzoxazole-3-carboxamide] | 0.1 to 100 nM | 101 to 1000 nM |
| COCCOc1ccn2ncc(C(=O)Nc3ccc(-c4n[nH]c(=O)c5ccccc45)cc3)c2c1 [Example 184, 5-(2-methoxyethoxy)-N-[4-(4-oxo-3,4-dihydrophthalazin-1-yl)phenyl]pyrazolo[1,5-a]pyridine-3-carboxamide] | 0.1 to 100 nM | 0.1 to 100 nM |
| COc1ccccc1-n1cc(C(=O)Nc2ccc(-c3n[nH]c(=O)c4ccccc34)cc2)nn1 [Example 406, 1-(2-Methoxyphenyl)-N-(4-(4-oxo-3,4-dihydrophthalazin-1-yl)phenyl)-1H-1,2,3-triazole-4-carboxamide] | 0.1 to 100 nM | 0.1 to 100 nM |
| O=C(Cc1ccc(-c2n[nH]c(=O)c3ccccc23)cc1)Nc1noc2c1CCCC2 [Example 276, 2-[4-(4-oxo-3,4-dihydrophthalazin-1-yl)phenyl]-N-(4,5,6,7-tetrahydro-1,2-benzoxazol-3-yl)acetamide] | 0.1 to 100 nM | 1000 to 50000 nM |
| O=C(Cc1ccc(-c2n[nH]c(=O)c3ccccc23)cc1)Nc1ccc2c(c1)OCCO2 [Example 24, N-(2,3-dihydro-1,4-benzodioxin-6-yl)-2-[4-(4-oxo-3,4-dihydrophthalazin-1-yl)phenyl]acetamide] | 0.1 to 100 nM | 101 to 1000 nM |
| CC(C)=Cn1nc(C(=O)Nc2ccc(-c3n[nH]c(=O)c4ccccc34)cc2)c2cc(F)ccc21 [Example 178, 5-fluoro-1-(2-methylprop-1-en-1-yl)-N-[4-(4-oxo-3,4-dihydrophthalazin-1-yl)phenyl]-1H-indazole-3-carboxamide] | 0.1 to 100 nM | 101 to 1000 nM |
| Cc1cc(NC(=O)c2cnn3ccccc23)ccc1-c1n[nH]c(=O)c2ccccc12 [Example 310, N-[3-methyl-4-(4-oxo-3,4-dihydrophthalazin-1-yl)phenyl]pyrazolo [1,5-a]pyridine-3-carboxamide] | 0.1 to 100 nM | 101 to 1000 nM |
| O=C(Cc1ccc(-c2n[nH]c(=O)c3ccccc23)cc1)Nc1nccs1 [Example 28, 2-[4-(4-oxo-3,4-dihydrophthalazin-1-yl)phenyl]-N-(1,3-thiazol-2-yl)acetamide] | 101 to 1000 nM | 1000 to 50000 nM |
| COc1ccc(C#N)c(-n2cnc(C(=O)Nc3ccc(-c4n[nH]c(=O)c5ccccc45)cc3)n2)c1 [Example 239, 1-(2-cyano-5-methoxyphenyl)-N-[4-(4-oxo-3,4-dihydrophthalazin-1-yl)phenyl]-1H-1,2,4-triazole-3-carboxamide] | 0.1 to 100 nM | 101 to 1000 nM |
| O=C(Nc1ccc(-c2n[nH]c(=O)c3ccccc23)cc1)c1nn(CC2CCN(CCCCO)CC2)c2ccccc12 [Example 322, 1-((1-(4-Hydroxybutyl)piperidin-4-yl)methyl)-N-(4-(4-oxo-3,4-dihydrophthalazin-1-yl)phenyl)-1H-indazole-3-carboxamide] | 101 to 1000 nM | 0.1 to 100 nM |
| O=c1[nH]nc(-c2ccc(Nc3ncc(-c4ccccc4)s3)cc2)c2ccccc12 [Example 88, 4-(4-((5-Phenylthiazol-2-yl)amino)phenyl)phthalazin-1(2H)-one] | 0.1 to 100 nM | 1000 to 50000 nM |
| CN(C)c1ccc(C(=O)Nc2ccc3c(c2)N(C(=O)Cc2ccc(-c4n[nH]c(=O)c5ccccc45)cc2)CC3)cc1 [Example 300, 4-(Dimethylamino)-N-(1-(2-(4-(4-oxo-3,4-dihydrophthalazin-1-yl)phenyl)acetyl)indolin-6-yl)benzamide] | 0.1 to 100 nM | 0.1 to 100 nM |
| Cc1c(C(=O)Nc2ccc(-c3n[nH]c(=O)c4ccccc34)cc2)cnn1-c1ccccc1 [Example 189, 5-methyl-N-[4-(4-oxo-3,4-dihydrophthalazin-1-yl)phenyl]-1-phenyl-1H-pyrazole-4-carboxamide] | 0.1 to 100 nM | 0.1 to 100 nM |
| CN(C)c1ccc2cc(C(=O)Nc3ccc(-c4n[nH]c(=O)c5ccccc45)cc3)[nH]c2c1 [Example 94, 6-(dimethylamino)-N-[4-(4-oxo-3,4-dihydrophthalazin-1-yl)phenyl]-1H-indole-2-carboxamide] | 0.1 to 100 nM | 0.1 to 100 nM |
| O=c1[nH]nc(-c2ccc(Nc3ncc4ccccc4n3)cc2)c2ccccc12 [Example 78, 4-{4-[(Quinazolin-2-yl)amino]phenyl}-1,2-dihydrophthalazin-1-one] | 0.1 to 100 nM | 101 to 1000 nM |
| COc1cc(NC(=O)c2nn(CC3CCOC3)c3ccccc23)ccc1-c1n[nH]c(=O)c2ccccc12 (stereo not drawn) [Example 348, N-(3-Methoxy-4-(4-oxo-3,4-dihydrophthalazin-1-yl)phenyl)-1-((tetrahydrofuran-3-yl)methyl)-1H-indazole-3-carboxamide] | 0.1 to 100 nM | 101 to 1000 nM |

| SMILES | IC50 [1] | IC50 [2] |
| --- | --- | --- |
| O=C(Nc1ccc(-c2n[nH]c(=O)c3ccccc23)cc1)c1cnn2cc(OCCN3CCCC3)ccc12 [Example 176, N-[4-(4-oxo-3,4-dihydrophthalazin-1-yl)phenyl]-6-[2-(pyrrolidin-1-yl)ethoxy]pyrazolo[1,5-a]pyridine-3-carboxamide] | 0.1 to 100 nM | 0.1 to 100 nM |
| O=C(Nc1ccc(-c2n[nH]c(=O)c3ccccc23)cc1)c1cn(C2CCNCC2)nn1 [Example 372, N-(4-(4-Oxo-3,4-dihydrophthalazin-1-yl)phenyl)-1-(piperidin-4-yl)-1H-1,2,3-triazole-4-carboxamide] | 101 to 1000 nM | 101 to 1000 nM |
| O=C(Nc1ccc(-c2n[nH]c(=O)c3ccccc23)cc1)c1nn(CCO)c2ccccc12 [Example 155, 1-(2-hydroxyethyl)-N-[4-(4-oxo-3,4-dihydrophthalazin-1-yl)phenyl]-1H-indazole-3-carboxamide] | 0.1 to 100 nM | 0.1 to 100 nM |
| O=C(Nc1ccc(-c2n[nH]c(=O)c3ccccc23)cc1)c1ccc(-n2ccnc2)cc1 [Example 65, 4-(1H-imidazol-1-yl)-N-[4-(4-oxo-3,4-dihydrophthalazin-1-yl)phenyl]benzamide] | 0.1 to 100 nM | 0.1 to 100 nM |
| CC(=O)N1CC(Cn2nc(C(=O)Nc3ccc(-c4n[nH]c(=O)c5ccccc45)c(Cl)c3)c3ccccc32)C1 [Example 329, 1-((1-Acetylazetidin-3-yl)methyl)-N-(3-chloro-4-(4-oxo-3,4-dihydrophthalazin-1-yl)phenyl)-1H-indazole-3-carboxamide] | 0.1 to 100 nM | 0.1 to 100 nM |
| O=C(Cc1ccc(-c2c[nH]c(=O)c3ccccc23)c(F)c1)N1CCc2ccccc21 [Example 287, 4-(2-Fluoro-4-(2-(indolin-1-yl)-2-oxoethyl)phenyl)isoquinolin-1 (2H)-one] | 0.1 to 100 nM | 0.1 to 100 nM |
| COc1cc(C)c2c(c1)CCN2C(=O)Cc1ccc(-c2n[nH]c(=O)c3ccccc23)cc1 [Example 252, 4-(4-(2-(5-Methoxy-7-methylindolin-1-yl)-2-oxoethyl)phenyl)phthalazin-1(2H)-one] | 101 to 1000 nM | 1000 to 50000 nM |
| Cc1cc(NC(=O)c2c3ccccc3nn2CC2COC2)ccc1-c1n[nH]c(=O)c2ccccc12 [Example 305, N-[3-methyl-4-(4-oxo-3,4-dihydrophthalazin-1-yl)phenyl]-2-(oxetan-3-ylmethyl)-2H-indazole-3-carboxamide] | 1000 to 50000 nM | 1000 to 50000 nM |
| COCC(O)COc1ccn2ncc(C(=O)Nc3ccc(-c4n[nH]c(=O)c5ccccc45)cc3)c2c1 (stereo not drawn) [Example 194, 5-(2-hydroxy-3-methoxypropoxy)-N-[4-(4-oxo-3,4-dihydrophthalazin-1-yl)phenyl]pyrazolo[1,5-a]pyridine-3-carboxamide] | 0.1 to 100 nM | 101 to 1000 nM |
| COc1ccc2cc(C(=O)Nc3ccc(-c4n[nH]c(=O)c5ccccc45)cc3)n(C)c2c1 [Example 127, 6-methoxy-1-methyl-N-[4-(4-oxo-3,4-dihydrophthalazin-1-yl)phenyl]-1H-indole-2-carboxamide] | 0.1 to 100 nM | 0.1 to 100 nM |
| Cc1c(C(=O)Nc2ccc(-c3n[nH]c(=O)c4ccccc34)cc2)nnn1-c1cccc(C(F)(F)F)c1 [Example 232, 5-methyl-N-[4-(4-oxo-3,4-dihydrophthalazin-1-yl)phenyl]-1-[3-(trifluoromethyl)phenyl]-1H-1,2,3-triazole-4-carboxamide] | 0.1 to 100 nM | 101 to 1000 nM |
| COc1ccc2c(c1)N(C(=O)Nc1ccc(-c3c[nH]c(=O)c4cc(OC)c(OC)cc34)cc1)CC2 [Example 257, N-(4-(6,7-Dimethoxy-1-oxo-1,2-dihydroisoquinolin-4-yl)phenyl)-6-methoxyindoline-1-carboxamide] | 0.1 to 100 nM | 1000 to 50000 nM |
| O=C(Nc1ccc(-c2n[nH]c(=O)c3ccccc23)cc1)c1cnn2ccc(OCCN3CCOCC3)cc12 [Example 187, 5-[2-(morpholin-4-yl)ethoxy]-N-[4-(4-oxo-3,4-dihydrophthalazin-1-yl)phenyl]pyrazolo[1,5-a]pyridine-3-carboxamide] | 0.1 to 100 nM | 0.1 to 100 nM |
| COc1ccn2ncc(C(=O)Nc3ccc(-c4n[nH]c(=O)c5ccccc45)cc3)c2c1 [Example 182, 5-methoxy-N-[4-(4-oxo-3,4-dihydrophthalazin-1-yl)phenyl]pyrazolo[1,5-a]pyridine-3-carboxamide] | 0.1 to 100 nM | 0.1 to 100 nM |
| Cc1cccc(N2CCC(C(=O)Nc3ccc(-c4n[nH]c(=O)c5ccccc45)cc3)C2=O)c1 (stereo not drawn) [Example 209, 1-(3-methylphenyl)-2-oxo-N-[4-(4-oxo-3,4-dihydrophthalazin-1-yl)phenyl]pyrrolidine-3-carboxamide] | 101 to 1000 nM | 101 to 1000 nM |
| O=C(c1ccc2c(c1)CCN2C(=O)Cc1ccc(-c2n[nH]c(=O)c3ccccc23)cc1)N1CCOCC1 [Example 296, 4-(4-{2-[5-(morpholine-4-carbonyl)-2,3-dihydro-1H-indol-1-yl]-2-oxoethyl}phenyl)-1,2-dihydrophthalazin-1-one] | 0.1 to 100 nM | 101 to 1000 nM |
